Test results as given in patent US11426397B2, “Piperidinyl- and piperazinyl-substituted heteroaromatic carboxamides as modulators of GPR6” (TAKEDA PHARMACEUTICAL COMPANY LIMITED, priority 2017, dated 2022).

Target: T1, GPR6 receptor expressed in CHO-K1 cells (Homo sapiens, UniProt P46095)
T1 construct: expressed in transfected cells
Assay: In vitro inhibition of cAMP (EC50), cell-based HTRF cAMP assay
Details: inhibition of constitutive cAMP activity of GPR6 in CHO-K1 cells
Procedure, shortened: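 Tetracycline-inducible CHO-K1 line, GPR6 expression induced 20 h with 2 μg/mL doxycycline. Compounds incubated 45 min at 37 °C in Ringer's buffer (pH 7.4) with 0.5% fatty acid free BSA and 300 μM IBMX. Constitutive cAMP read by Lance HTRF; EC50 from four-parameter logistic fit.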

T1 sequence (P46095 whole entry): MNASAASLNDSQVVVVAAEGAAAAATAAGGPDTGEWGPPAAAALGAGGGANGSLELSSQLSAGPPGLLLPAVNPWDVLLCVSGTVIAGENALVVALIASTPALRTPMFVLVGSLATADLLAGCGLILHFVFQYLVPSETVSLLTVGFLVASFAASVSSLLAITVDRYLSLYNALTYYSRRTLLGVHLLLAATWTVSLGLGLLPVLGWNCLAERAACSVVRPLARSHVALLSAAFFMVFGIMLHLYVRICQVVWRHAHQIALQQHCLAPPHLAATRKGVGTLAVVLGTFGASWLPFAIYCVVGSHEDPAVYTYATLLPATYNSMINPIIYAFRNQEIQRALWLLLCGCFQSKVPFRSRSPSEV

SMILES | pEC50, in vitro inhibition of cAMP
COc1ccncc1C(=O)Nc1cc(C(=O)N(C)C)ncc1N1CCC(Oc2ccc(F)cc2F)CC1 [Example 262, 5-(4-(2,4-difluorophenoxy)piperidin-1-yl)-4-(4-methoxynicotinamido)-N,N-dimethylpicolinamide] | 7.3
COc1ccncc1C(=O)Nc1cnc(C)cc1N1CCC(Oc2ccc(F)cc2F)CC1 [Example 263] | 7.1
COc1ncccc1C(=O)Nc1cnccc1N1CCC(Oc2ccc(F)cc2F)CC1 [Example 264] | 6.8
COc1ncccc1C(=O)Nc1cc(C(=O)N(C)C)ccc1N1CCC(Oc2ccc(F)cc2F)CC1 [Example 265] | 6.7
COc1nn(C)cc1C(=O)Nc1cc(C#N)ncc1N1CCN(Cc2ccc(F)c(F)c2F)CC1 [Example 266, N-(2-cyano-5-(4-(2,3,4-trifluorobenzyl)piperazin-1-yl)pyridin-4-yl)-3-methoxy-1-methyl-1H-pyrazole-4-carboxamide] | 6.8
COc1nn(C)cc1C(=O)Nc1cc(C#N)ncc1N1CCN(Cc2cc(F)c(F)c(F)c2)CC1 [Example 267, N-(2-cyano-5-(4-(3,4,5-trifluorobenzyl)piperazin-1-yl)pyridin-4-yl)-3-methoxy-1-methyl-1H-pyrazole-4-carboxamide] | 6.4
COCc1cc(N2CCC(Oc3ccc(F)cc3F)CC2)c(NC(=O)c2cccnc2OC)cn1 [Example 268] | 6.9
COc1ncccc1C(=O)Nc1cnc(C(N)=O)cc1N1CCC(Oc2ccc(F)cc2F)CC1 [Example 269, 4-(4-(2,4-difluorophenoxy)piperidin-1-yl)-5-(2-methoxynicotinamido)picolinamide] | 6.9
COc1ncccc1C(=O)Nc1cnc(C#N)cc1N1CCC(Oc2ccc(F)cc2F)CC1 [Example 270, N-(6-cyano-4-(4-(2,4-difluorophenoxy)piperidin-1-yl)pyridin-3-yl)-2-methoxynicotinamide] | 6.9
COc1ncccc1C(=O)Nc1cc(C#N)c(C#N)cc1N1CCC(Oc2ccc(F)cc2F)CC1 [Example 271] | 7.1
COc1ncccc1C(=O)Nc1cc(C(=O)N(C)C)c(C#N)cc1N1CCC(Oc2ccc(F)cc2F)CC1 [Example 272] | 7.4
COc1ncccc1C(=O)Nc1cc(C#N)c(C(=O)N(C)C)cc1N1CCC(Oc2ccc(F)cc2F)CC1 [Example 273] | 7.3
N#Cc1ccc(N2CCC(Oc3ccc(F)cc3F)CC2)c(NC(=O)c2ccc[nH]c2=O)c1 [Example 274] | 7.0
N#Cc1ccc(N2CCC(Oc3ccc(F)cc3F)CC2)c(NC(=O)c2ccccc2O)c1 [Example 275, N-(5-cyano-2-(4-(2,4-difluorophenoxy)piperidin-1-yl)phenyl)-2-hydroxybenzamide] | 6.5
N#Cc1ccc(N2CCC(Oc3ccc(F)cc3F)CC2)c(NC(=O)c2cccnc2OC(F)F)c1 [Example 276, N-(5-cyano-2-(4-(2,4-difluorophenoxy)piperidin-1-yl)phenyl)-2-(difluoromethoxy)nicotinamide] | 7.3
N#Cc1ccc(N2CCC(Oc3ccc(F)cc3F)CC2)c(NC(=O)c2cccn(C(F)F)c2=O)c1 [Example 277, N-(5-cyano-2-(4-(2,4-difluorophenoxy)piperidin-1-yl)phenyl)-1-(difluoromethyl)-2-oxo-1,2-dihydropyridine-3-carboxamide] | 6.5
COc1nc(C)ncc1C(=O)Nc1cc(C#N)ccc1N1CCC(Oc2ccc(F)cc2F)CC1 [Example 278] | 7.4
Cn1cccc(C(=O)Nc2cc(S(=O)(=O)N3CCOCC3)cnc2N2CCC(Oc3ccc(F)cc3F)CC2)c1=O [Example 279, N-(2-(4-(2,4-difluorophenoxy)piperidin-1-yl)-5-(morpholinosulfonyl)pyridin-3-yl)-1-methyl-2-oxo-1,2-dihydropyridine-3-carboxamide] | 7.0
COc1nc(C)ccc1C(=O)Nc1cnc(C#N)nc1N1CCC(Oc2ccc(F)cc2F)CC1 [Example 280, N-(2-cyano-4-(4-(2,4-difluorophenoxy)piperidin-1-yl)pyrimidin-5-yl)-2-methoxy-6-methylnicotinamide] | 7.1
COc1ncccc1C(=O)Nc1cnc(C(=O)N(C)C)nc1N1CCC(Oc2ccc(F)cc2F)CC1 [Example 281, 4-(4-(2,4-difluorophenoxy)piperidin-1-yl)-5-(2-methoxynicotinamido)-N,N-dimethylpyrimidine-2-carboxamide] | 6.4
COc1ncccc1C(=O)Nc1cc(C#N)nnc1N1CCC(Oc2ccc(F)cc2F)CC1 [Example 282, N-(6-cyano-3-(4-(2,4-difluorophenoxy)piperidin-1-yl)pyridazin-4-yl)-2-methoxynicotinamide] | 7.2
COc1ccc(C(=O)N2CCN(c3ccc(C#N)cc3NC(=O)c3cccnc3OC)CC2)c(F)c1 [Example 284, N-(5-cyano-2-(4-(2-fluoro-4-methoxybenzoyl)piperazin-1-yl)phenyl)-2-methoxynicotinamide] | 6.6
COc1ncccc1C(=O)Nc1cc(C#N)ccc1N1CCN(C(=O)c2ccc(Cl)cc2)CC1 [Example 285, N-(2-(4-(4-chlorobenzoyl)piperazin-1-yl)-5-cyanophenyl)-2-methoxynicotinamide] | 6.9
COc1ncccc1C(=O)Nc1cc(C#N)ccc1N1CCN(C(=O)c2ccc(F)cc2)CC1 [Example 286, N-(5-cyano-2-(4-(4-fluorobenzoyl)piperazin-1-yl)phenyl)-2-methoxynicotinamide] | 6.7
COc1ncccc1C(=O)Nc1cc(C#N)ccc1N1CCN(S(=O)(=O)c2ccc(F)cc2)CC1 [Example 287, N-(5-cyano-2-(4-((4-fluorophenyl)sulfonyl)piperazin-1-yl)phenyl)-2-methoxynicotinamide] | 6.2
COc1ncccc1C(=O)Nc1cc(C#N)ccc1N1CCN(C(C)c2ccc(F)cc2)CC1 (stereo not drawn) [Example 288] | 6.0
COc1ncccc1C(=O)Nc1cnc(C(F)(F)F)cc1N1CCC(Oc2ccc(F)cc2F)CC1 [Example 289] | 6.9
COc1ncccc1C(=O)Nc1cc(C#N)ccc1N1CCN(Cc2ncc(F)cc2F)CC1 [Example 290] | 6.5
COc1ncccc1C(=O)Nc1cc(C#N)ccc1N1CCN(Cc2ccc(F)cc2C#N)CC1 [Example 291, N-(5-cyano-2-(4-(2-cyano-4-fluorobenzyl)piperazin-1-yl)phenyl)-2-methoxynicotinamide] | 6.9
Cn1cccc(C(=O)Nc2cc(C#N)ccc2N2CCC(Oc3cc(F)cnc3F)CC2)c1=O [Example 292, N-(5-cyano-2-(4-((2,5-difluoropyridin-3-yl)oxy)piperidin-1-yl)phenyl)-1-methyl-2-oxo-1,2-dihydropyridine-3-carboxamide] | 6.6
